From patent publication US11643428B2, “Therapeutic drug for neurodegenerative disease and application thereof” (SHANGHAI PHARMACEUTICALS HOLDING CO., LTD., priority 2018, dated 2023)

Legend:
[1] = tested on: AD mice; assay: Neurogenesis in vivo, BrdU/NeuN staining of hippocampus; design: species or system mouse; conditions: 10 mg/kg intragastrically once daily, 90 days, vs control group
Experimental: The inventors conducted PL201 administration experiments on AD mice (5-6 months aged AD mice were selected). Each mouse was intragastrically administrated 100 μl PL201, and the dosage was 10 mg/kg mouse body weight. Moreover, mice in the control group were administrated 100 μl water once daily for 90 days, and from Day 60 were intraperitoneally injected with 5-bromo-2′-deoxyuridine (BrdU) of 50 mg/kg mouse body weight once daily for 7 days. After 90 days of administration, the mice were perfused with PFA after anesthesia, and the whole brain was taken for further experiments.
For the obtained whole brain, a mature neuron marker NeuN in the hippocampus of mice was detected: The brain of mouse which had been perfused with PFA was then fixed in 4% PFA for 24 hours, and then kept for 72 hours in 30% sucrose for cryoprotection. After the treatment was completed, the region of cerebellum was removed, and the olfactory bulb was placed upright on the filter paper and frozen at −80° C. for at least 24 hours. The frozen sectioning was performed vertically and longitudinally with a thickness of 30 μm. A total of 8×9×=72 slices (2.16 mm) including DG portion were cut and arranged in slicing order. One slice was taken from every 8 slices and combined into a group of brain slices for staining. […] The number of single or double positive cells was analyzed by Image Pro Plus software. […]

[2] = tested on: APP/PS1 transgenic mice (AD mice); assay: Morris water maze test; assay type: in vivo, mouse; conditions: 10 mg/kg intragastrically daily, 90 days, vs model group
Experimental: Twenty 5-6 months aged, male APP/PS1 transgenic mice (AD mice) were selected, and were divided into a model group and a polysaccharide administration group randomly by random number table method. PL201 was intragastrically administered daily (10 mg/kg mouse body weight), meanwhile, 10 non-transgenic mice were used as a negative control group (without PL201 administration). After 90 days of consecutive administration, Morris water maze behavior test was used to detect the effects of PL201 on learning and cognitive function of APP/PS1 mice.
Classic Morris water maze test procedure was used in the test, which includes two parts: i.e., the place navigation task and the spatial probe task. The test lasted for 7 days, and the spatial probe task was added at Day 4 and Day 7.
It can be seen from the test results in FIG. 1 that the escape latency of all the three groups of animals after 3 days of training was shortened in the place navigation task, illustrating that mice in each group can successfully complete the spatial learning task of the water maze. The escape latency was used as a test indicator.

[3] = tested on: Human neural stem cells; assay: Neural stem cell proliferation under Aβ by EdU incorporation; assay type: cell-based; conditions: Aβ 5 μM pre-treatment 30 minutes, PL201 30 μM, 72 hours
Experimental: As the main pathogenic protein of AD, Aβ inhibits neural stem cell proliferation. In this example, the inventors detected the levels of human neural stem cell proliferation by EdU incorporation, and tested whether PL201 can alleviate the inhibition effect of Aβ on the proliferation of neural stem cells.
Human neural stem cells (3 L) were cultured in DMEM/F12 (containing N2/B27 and 10 ng/ml bFGF), plated to 96 well plates and incubated for 24 hours, then Aβ (5 μM) was added to pre-treat the cells for 30 minutes, and then PL201 (30 μM) was added. After co-incubation for 72 hours, the proliferation level of neural stem cells was detected by EdU staining.

[4] = tested on: mouse BV-2 cell line; assay: Expression of inflammatory factors in LPS-treated BV-2 cells by QPCR; assay type: cell-based; conditions: PL201 10, 30, 100 μM, LPS 300 ng/ml, 24 hours
Experimental: Neuroinflammation in the brain of AD is one of the causes of cognitive decline. Microglial cells are the key cells that mediate neuroinflammation. In this example, the inventors have explored whether PL201 has the effect of inhibiting neuroinflammation by detecting the expressions of inflammatory factors on mouse BV-2 cell line.
BV-2 cells were cultured in DMEM, plated to 24 well plates and cultured for 24 hours, then PL201 (0, 10, 30, and 100 μM) and LPS (300 ng/ml) were added. After co-incubation for 24 hours, Trizol was used to extract RNA and the expressions of related inflammatory factors were detected by QPCR.
Mouse BV-2 cells were cultured in DMEM, plated to 24 well plates and cultured for 24 hours, then PL202 (0, 30, 100, and 300 μM) and LPS (300 ng/ml) were added. After co-incubation for 24 hours, Trizol was used to extract RNA and the expressions of related inflammatory factors were detected by QPCR.

[5] = tested on: AMPK phosphorylation in human neural stem cells; assay: AMPK phosphorylation level by western blot; assay type: cell-based; conditions: Aβ 5 μM pre-treatment 30 minutes, PL201 30 PM, 72 hours
Experimental: The changes of mitochondrial function are closely related to the regulation of metabolism signaling including AMPK, which is also widely considered to be closely related to the pathogenesis of AD. In this example, the inventors have explored whether PL201 has an effect on metabolism signaling by detecting the level of AMPK phosphorylation in human neural stem cells via western blot.
Human neural stem cells (3 L) were cultured in DMEM/F12 (containing N2/B27 and 10 ng/ml bFGF), plated to 12 well plates and cultured for 24 hours, then Aβ (5 μM) was added to pre-treat the cells for 30 minutes, and then PL201 ([…]) was added. After co-incubation for 72 hours, the cells were washed with PBS and lysed with Laemmli's sample buffer, then SDS PAGE electrophoresis was performed to detect associated protein bands with rabbit anti-phospo-AMPK and total AMPK antibody.

COc1cc(/C=C/C(=O)OC2OC(C)C(O)C(O)C2O)ccc1O [PL201, (α-L-rhamnopyranosyl) ferulic acid ester]
BrdU/NeuN double-positive newborn neurons in hippocampus [1]: more BrdU/NeuN double-positive newborn neurons | learning and memory abilities (escape latency) [2]: significantly improved | proliferation level of neural stem cells (EdU staining) [3]: significantly alleviate the inhibitory effect of Aβ | expression of inflammatory factor IL-1β [4]: significantly inhibit | expression of inflammatory factor TNFα [4]: significantly inhibit | AMPK phosphorylation level [5]: reduced the extent of this decline
